The source of these data is patent US8962553B2, “Method of treating a diabetic subject having a microvascular impairment disorder by a pegylated C-peptide” (Cebix Ab, priority 2011, dated 2015).

The term half-life denotes how long it takes for the measured level to halve. The Cmax is the highest concentration seen after dosing. By clearance is commonly meant the volume of plasma or blood freed of the substance per unit of time. By Vd is commonly meant the apparent volume that relates the amount in the body to the concentration in plasma or blood. For orientation: Tmax means the time from dosing to the highest level. By bioavailability is commonly meant dose-corrected exposure relative to a reference, in per cent. The low end stands for little systemic uptake, the high end for much systemic uptake. By CL/F is commonly meant clearance divided by bioavailability, as obtained after extravascular dosing. For orientation: Vd/F means the apparent distribution volume after extravascular dosing.

For data set [1] the following is noted: in vivo.
The conditions of data set [2]: cited from earlier work.
Data set [3] in a line: STZ rat Study #1: animal survival and clinical observations. The class given is in vivo. The following applies: Group 5: 1.5 mg/kg over 24 h by pump, N 10, STZ rats, end of study. The method, then:
Male Sprague Dawley rats (Harlan Laboratories, Inc.; Indianapolis, Ind.) weighing approximately 400 g had type 1 diabetes induced on Day 1 by intravenous administration of clinical-grade STZ (Zanosar®; 50 mg/kg in Study #1 and 33 mg/kg in Study #2). On Day 3 (Study #1) or Day 4 (Study #2), blood was collected and K3EDTA plasma was analyzed for endogenous C-peptide levels and animals with C-peptide <0.4 nM were randomized on Day 7 (Study #1) or Day 9 (Study #2) taking into account body weight and blood glucose (criterion in the range 400-600 mg/dL). Randomization was done using Covance's BRAT system.
Insulin (Lantus®, long-acting insulin glargine) was used in both studies and administered subcutaneously in the evening before the start of the 12-hour dark cycle in the animal room (time period when most food consumption takes place). In Study #1, rats were initiated on insulin after there were a number of animal deaths starting early in the study (3 days into the treatment period). All animals were receiving 3 U/day of insulin by the end of the study. […] Additionally to limit dehydration when needed throughout the studies, warm sterile saline (volume determined by veterinarian) was administered to animals, and in particular in Study #2, to animals 24 hours prior to undergoing surgery for pump implantation. […]

A short description of data set [4]: Single-dose pharmacokinetic study of C-peptide in patients with type 1 diabetes. Conditions: human, in vivo; for Vd: 0.45 mg (150 nmol) i.v., mean ± SD.
Method: In a single-dose pharmacokinetic study of C-peptide in patients with type 1 diabetes, recombinant human C-peptide was administered subcutaneously at doses of 150 nmol, 600 nmol, 1800 nmol, and intravenously at a dose of 150 nmol with a wash-out period of at least three days.
The next data set can be described thus: clinical. Conditions: human, in vivo.
The conditions of data set [5]: in vivo; cited from earlier work.

Where two headings read alike, the source gives them in different places.

Turning to `CC(C)C[C@H](NC(=O)[C@H](C)NC(=O)[C@H](CC(C)C)NC(=O)[C@@H]1CCCN1C(=O)[C@H](CCC(N)=O)NC(=O)[C@H](CC(C)C)NC(=O)[C@H](CO)NC(=O)CNC(=O)[C@H](C)NC(=O)CNC(=O)[C@@H]1CCCN1C(=O)CNC(=O)CNC(=O)CNC(=O)[C@H](CC(C)C)NC(=O)[C@H](CCC(=O)O)NC(=O)[C@@H](NC(=O)[C@H](CCC(N)=O)NC(=O)CNC(=O)[C@@H](NC(=O)[C@H](CCC(N)=O)NC(=O)[C@H](CC(C)C)NC(=O)[C@H](CC(=O)O)NC(=O)[C@H](CCC(=O)O)NC(=O)[C@H](C)NC(=O)[C@@H](N)CCC(=O)O)C(C)C)C(C)C)C(=O)N[C@@H](CCC(=O)O)C(=O)NCC(=O)N[C@@H](CO)C(=O)N[C@@H](CC(C)C)C(=O)N[C@@H](CCC(N)=O)C(=O)O` [C-peptide], in data set [1], the “dose required to obtain a plasma concentration of 1-3 nM” value worked out at 10.5 mg/week. Further, the “dose required to obtain a plasma concentration of 1-3 nM for most of the day” value in data set [1] came to 1.5 mg/day. In addition, the half-life in data set [2] (healthy subjects, range of 24.9-45.3 minutes) was 0.558 h; in data set [2] (subjects with type 1 diabetes, range of 39.4-48.5 minutes), 0.708 h; in the data set “clinical” (iv, 0.45 mg), 1.13 h; in the data set “clinical” (sc, 0.45 mg), 1.13 ± 0.35 h; in the data set “clinical” (sc, 1.8 mg) it was 1.02 h; in the data set “clinical” (sc, 5.4 mg), 1.13 h. For the same compound, in data set [3], the “Number of Surviving Animals” value is recorded as 1. Further, the Cmax stood at 30.8 ± 6.57 nM in data set [4] (iv, 0.45 mg); 3.7 ± 1.04 nM in data set [4] (sc, 0.45 mg); 14.3 ± 3.22 nM in data set [4] (sc, 1.8 mg); 40.3 ± 7.03 nM in data set [4] (sc, 5.4 mg). In data set [4] (iv, 0.45 mg), this compound came in with a clearance of 250 ± 46 mL/min. In addition, the distribution volume (Vd) in data set [4] (iv, 0.45 mg, Vss) stood at 10.9 ± 1.97 L; in data set [4] (iv, 0.45 mg, Vz) it was 25.6 ± 7.65 L. The Tmax in data set [4] (sc, 0.45 mg) is 0.833 h; in data set [4] (sc, 1.8 mg), 1.08 h; in data set [4] (sc, 5.4 mg), 1.22 h. Further, the bioavailability in data set [4] (sc, 0.45 mg) was found to be 86.9 ± 12.1%. For the same compound, the apparent clearance (CL/F) in “clinical” (sc, 0.45 mg) came to 290 ± 67 mL/min; in the data set “clinical” (sc, 1.8 mg), 270 ± 47 mL/min; in “clinical” (sc, 5.4 mg), 250 ± 41 mL/min. Also, the Vd/F in “clinical” (sc, 0.45 mg) was determined as 28.3 ± 8.96 L; in “clinical” (sc, 1.8 mg), 23.4 ± 5.27 L; in the data set “clinical” (sc, 5.4 mg), 24.4 ± 5.47 L.

For the compound “Regular insulin: short-acting insulin preparation”, in data set [5], the onset of action is 30 to 60 min.

In the case of Glargine insulin, in data set [5], the duration of activity is 24 h and the “peak time of effect” value is on record as “no peak effect”.
